Patent US11780826B2 (Amgen Inc., priority 2017, dated 2023)

What follows are compounds tested on Bovine cardiac myofibrils (assay: In vitro model of dose-dependent myofibril ATPase modulation (AC1.4, pyruvate kinase/lactate dehydrogenase-coupled ATPase assay at pCa25)). Conditions: concentration at which ATPase activity was 1.4-fold higher than the bottom of the dose curve, mean of a minimum of two independent tests.
Assay type: biochemical
Experimental: In vitro Model of Dose-Dependent Myofibril ATPase Modulation: Dose responses were measured using a calcium-buffered, pyruvate kinase and lactate dehydrogenase-coupled ATPase assay containing the following reagents (concentrations expressed are final assay concentrations): Potassium PIPES (12 mM), MgCl2 (2 mM), ATP (1 mM), DTT (1 mM), BSA (0.1 mg/mi), NADH (0.5 mM), PEP (1.5 mM), pyruvate kinase (4 U/ml), lactate dehydrogenase (8 U/ml), and antifoam (90 ppm). The pH was adjusted to 6.80 at 22° C. by addition of potassium hydroxide.
Bovine cardiac myofibrils were obtained by homogenizing the appropriate tissue in the presence of detergent. Such treatment removes membranes and majority of soluble cytoplasmic proteins but leaves intact cardiac sarcomeric acto-myosin apparatus. Concentrations of myofibrils were adjusted to achieve the necessary rate of ATP hydrolysis (typically 0.25-1.0 mg/ml).
Assays were performed by first preparing a dilution series of test chemical entity, each with an assay mixture containing potassium Pipes, MgCl2, BSA, DTT, pyruvate kinase, lactate dehydrogenase, myofibrils, antifoam, EGTA, CaCl2, and water. The assay was started by adding an equal volume of solution containing potassium Pipes, MgCl2, BSA, DTT, ATP, NADH, PEP, antifoam, and water. ATP hydrolysis was monitored by absorbance at 340 nm. The resulting dose response curve was fit by the 4 parameter equation y=Bottom+((Top−Bottom)/(1+((EC50/X)^Hill))). […] AC1.4 values reported in the table below are mean values based on a minimum of two independent tests.

How did the AC1.4 turn out when `N#CC1CN(S(=O)(=O)N2CCC[C@H](C(=O)N3CC(F)(F)C[C@@H]3C(=O)NCc3ccc(C(F)(F)F)cc3)C2)C1` [Example 25, 1-(((3S)-1-((3-cyano-1-azetidinyl)sulfonyl)-3-piperidinyl)carbonyl)-4,4-difluoro-N-(4-(trifluoromethyl)benzyl)-D-prolinamide] was run?
The AC1.4 was 0.0289 µM.

For `CS(=O)(=O)c1ccc(NC2CC2)c(C(=O)N2CCC[C@@H]2C(=O)N[C@@H](c2ccc(C(F)(F)F)cc2F)C2CC2)c1` [Example 26, 1-(2-(cyclopropylamino)-5-(methylsulfonyl)benzoyl)-N-((R)-cyclopropyl(2-fluoro-4-(trifluoromethyl)phenyl)methyl)-D-prolinamide], which AC1.4 is on record?
Its AC1.4 is 0.0296 µM.

Which AC1.4 does the source give for `N#CC1CN(S(=O)(=O)N2CCC[C@H](C(=O)N3CCC[C@@H]3C(=O)N[C@H](CC(F)(F)F)c3ccc(C(F)(F)F)cc3)C2)C1` [Example 28, 1-(((3S)-1-((3-cyano-1-azetidinyl)sulfonyl)-3-piperidinyl)carbonyl)-N-((1R)-3,3,3-trifluoro-1-(4-(trifluoromethyl)phenyl)propyl)-D-prolinamide] here?
The AC1.4 was 0.03125 µM.

Which AC1.4 does the source give for `C[C@@H](NC(=O)[C@H]1CCCN1C(=O)[C@H]1CCCN(S(=O)(=O)N2CC(C#N)C2)C1)c1ccc(C(F)(F)F)cc1F` [Example 29, 1-(((3S)-1-((3-cyano-1-azetidinyl)sulfonyl)-3-piperidinyl)carbonyl)-N-((1R)-1-(2-fluoro-4-(trifluoromethyl)phenyl)ethyl)-D-prolinamide] here?
The AC1.4 was 0.03155 µM.

`N#CC1CN(S(=O)(=O)c2cccc(C(=O)N3CCC[C@@H]3C(=O)N[C@@H](c3ccc(C(F)(F)F)cc3)C3CC3)c2)C1` [Example 30, 1-(3-((3-cyano-1-azetidinyl)sulfonyl)benzoyl)-N-((R)-cyclopropyl(4-(trifluoromethyl)phenyl)methyl)-D-prolinamide] was tested. Which AC1.4 did it give?
The AC1.4 was 0.0318 µM.

With `N#CC1CN(S(=O)(=O)c2cccc(C(=O)N3CCC[C@@H]3C(=O)N[C@H](CO)c3ccc(C(F)(F)F)cc3)c2)C1` [Example 31, 1-(3-((3-cyano-1-azetidinyl)sulfonyl)benzoyl)-N-((1S)-2-hydroxy-1-(4-(trifluoromethyl)phenyl)ethyl)-D-prolinamide] as the compound, how does the AC1.4 read?
The AC1.4 was 0.03275 µM.

Which AC1.4 does the source give for `N#CC1CN(S(=O)(=O)N2CCC[C@H](C(=O)N3CCC[C@@H]3C(=O)NCc3ccc(C(F)(F)F)c(F)c3)C2)C1` [Example 32, 1-(((3S)-1-((3-cyano-1-azetidinyl)sulfonyl)-3-piperidinyl)carbonyl)-N-(3-fluoro-4-(trifluoromethyl)benzyl)-D-prolinamide] here?
Its AC1.4 is 0.0335 µM.

With `N#CC1CN(S(=O)(=O)N2CCC[C@H](C(=O)N3[C@@H](C(=O)NCc4ccc(C(F)(F)F)cc4F)C[C@H]4C[C@H]43)C2)C1` [Example 33, (1R,3R,5R)-2-(((3S)-1-((3-cyano-1-azetidinyl)sulfonyl)-3-piperidinyl)carbonyl)-N-(2-fluoro-4-(trifluoromethyl)benzyl)-2-azabicyclo[3.1.0]hexane-3-carboxamide] as the compound, how does the AC1.4 read?
The AC1.4 was 0.03455 µM.

Which AC1.4 does the source give for `CCNc1ccc(C)cc1C(=O)N1C[C@H](O)C[C@@H]1C(=O)N[C@@H](c1cc(F)c(Cl)cc1F)C1COC1` [Example 34, (4R)-N-((R)-(4-chloro-2,5-difluorophenyl)(3-oxetanyl)methyl)-1-(2-(ethylamino)-5-methylbenzoyl)-4-hydroxy-D-prolinamide] here?
Its AC1.4 is 0.0361 µM.

With `N#CC1CN(S(=O)(=O)N2CCC[C@H](C(=O)N3CCC[C@@H]3C(=O)N[C@@H](c3cc(F)c(C(F)(F)F)cc3F)C3CC3)C2)C1` [Example 35, 1-(((3S)-1-((3-cyano-1-azetidinyl)sulfonyl)-3-piperidinyl)carbonyl)-N-((R)-cyclopropyl(2,5-difluoro-4-(trifluoromethyl)phenyl)methyl)-D-prolinamide] as the compound, how does the AC1.4 read?
The AC1.4 was 0.0372 µM.

With `N#CC1CN(S(=O)(=O)N2CCC[C@H](C(=O)N3CCC[C@@H]3C(=O)N[C@H](CCO)c3ccc(C(F)(F)F)cc3)C2)C1` [Example 36, 1-(((3S)-1-((3-cyano-1-azetidinyl)sulfonyl)-3-piperidinyl)carbonyl)-N-((1R)-3-hydroxy-1-(4-(trifluoromethyl)phenyl)propyl)-D-prolinamide] as the compound, how does the AC1.4 read?
The AC1.4 was 0.03765 µM.

With `N#CC1CN(S(=O)(=O)c2cccc(C(=O)N3CCC[C@@H]3C(=O)N[C@H](c3ccc(C(F)(F)F)cc3)C3CC3)c2)C1` [Example 37, 1-(3-((3-cyano-1-azetidinyl)sulfonyl)benzoyl)-N-((S)-cyclopropyl(4-(trifluoromethyl)phenyl)methyl)-D-prolinamide] as the compound, how does the AC1.4 read?
The AC1.4 was 0.0383 µM.

Which AC1.4 does the source give for `N#CC1CN(S(=O)(=O)N2CCC[C@H](C(=O)N3CCC[C@@H]3C(=O)NCc3ccc(C(F)(F)F)c(Cl)c3)C2)C1` [Example 38, N-(3-chloro-4-(trifluoromethyl)benzyl)-1-(((3S)-1-((3-cyano-1-azetidinyl)sulfonyl)-3-piperidinyl)carbonyl)-D-prolinamide] here?
Its AC1.4 is 0.0394 µM.

For `N#CC1CN(S(=O)(=O)N2CCC[C@H](C(=O)N3CCC[C@@H]3C(=O)N[C@@H](c3cc(F)c(Cl)cc3F)C3CC3)C2)C1` [Example 39, N-((R)-(4-chloro-2,5-difluorophenyl)(cyclopropyl)methyl)-1-(((3S)-1-((3-cyano-1-azetidinyl)sulfonyl)-3-piperidinyl)carbonyl)-D-prolinamide], which AC1.4 is on record?
The AC1.4 was 0.0394 µM.

With `CS(=O)(=O)c1ccc(NC2CCC2)c(C(=O)N2[C@@H](C(=O)N[C@@H](c3ccc(C(F)(F)F)cc3F)C3CC3)C[C@H]3C[C@H]32)c1` [Example 40, (1R,3R,5R)-2-(2-(cyclobutylamino)-5-(methylsulfonyl)benzoyl)-N-((R)-cyclopropyl(2-fluoro-4-(trifluoromethyl)phenyl)methyl)-2-azabicyclo[3.1.0]hexane-3-carboxamide] as the compound, how does the AC1.4 read?
Its AC1.4 is 0.0398 µM.

For `C[C@@H](NC(=O)[C@H]1CCCN1C(=O)c1cccc(S(=O)(=O)N2CC(C#N)C2)c1)c1ccc(C(F)(F)F)cc1` [Example 41, 1-((3-((3-cyano-1-azetidinyl)sulfonyl)phenyl)carbonyl)-N-((1R)-1-(4-(trifluoromethyl)phenyl)ethyl)-D-prolinamide], which AC1.4 is on record?
Its AC1.4 is 0.04135 µM.

With `N#CC1CN(S(=O)(=O)c2cccc(C(=O)N3CCC[C@@H]3C(=O)NCc3ccc(C(F)(F)F)cc3F)c2)C1` [Example 42, 1-((3-((3-cyano-1-azetidinyl)sulfonyl)phenyl)carbonyl)-N-(2-fluoro-4-(trifluoromethyl)benzyl)-D-prolinamide] as the compound, how does the AC1.4 read?
Its AC1.4 is 0.04293 µM.

`N#CC1CN(S(=O)(=O)c2cccc(C(=O)N3CCC[C@@H]3C(=O)NCc3ccc(Cl)cc3)c2)C1` [Example 43, N-(4-chlorobenzyl)-1-((3-((3-cyano-1-azetidinyl)sulfonyl)phenyl)carbonyl)-D-prolinamide] was tested. Which AC1.4 did it give?
The AC1.4 was 0.04337 µM.

How did the AC1.4 turn out when `CS(=O)(=O)c1ccc(NC2CCC2)c(C(=O)N2CCC[C@@H]2C(=O)N[C@@H](c2ccc(C(F)(F)F)cc2F)C2CC2)c1` [Example 44, 1-(2-(cyclobutylamino)-5-(methylsulfonyl)benzoyl)-N-((R)-cyclopropyl(2-fluoro-4-(trifluoromethyl)phenyl)methyl)-D-prolinamide] was run?
The AC1.4 was 0.0434 µM.

How did the AC1.4 turn out when `CC(C)C[C@@H](NC(=O)[C@H]1CCCN1C(=O)c1cccc(S(=O)(=O)N2CC(C#N)C2)c1)c1ccc(C(F)(F)F)cc1` [Example 45, 1-(3-((3-cyano-1-azetidinyl)sulfonyl)benzoyl)-N-((1R)-3-methyl-1-(4-(trifluoromethyl)phenyl)butyl)-D-prolinamide] was run?
Its AC1.4 is 0.0435 µM.

For `Cc1ccc([C@@H](C)NC(=O)[C@H]2CCCN2C(=O)c2cccc(S(=O)(=O)N3CC(C#N)C3)c2)c(F)c1` [Example 46, 1-((3-((3-cyano-1-azetidinyl)sulfonyl)phenyl)carbonyl)-N-((1R)-1-(2-fluoro-4-methylphenyl)ethyl)-D-prolinamide], which AC1.4 is on record?
Its AC1.4 is 0.0456 µM.

For `N#CC1CN(S(=O)(=O)N2CCC[C@H](C(=O)N3CCC[C@@H]3C(=O)N[C@H](c3cc(F)c(Cl)cc3F)C3CNC3)C2)C1` [Example 47, N-((S)-3-azetidinyl(4-chloro-2,5-difluorophenyl)methyl)-1-(((3S)-1-((3-cyano-1-azetidinyl)sulfonyl)-3-piperidinyl)carbonyl)-D-prolinamide], which AC1.4 is on record?
Its AC1.4 is 0.0527 µM.

`C[C@@H](NC(=O)[C@H]1CCCN1C(=O)[C@H]1CCCN(S(=O)(=O)N2CC(C#N)C2)C1)c1cc(F)c(Cl)cc1F` [Example 48, N-((1R)-1-(4-chloro-2,5-difluorophenyl)ethyl)-1-(((3S)-1-((3-cyano-1-azetidinyl)sulfonyl)-3-piperidinyl)carbonyl)-D-prolinamide] was tested. Which AC1.4 did it give?
The AC1.4 was 0.0531 µM.

Which AC1.4 does the source give for `C[C@@H](NC(=O)[C@H]1CCCN1C(=O)c1cccc(S(=O)(=O)N2CC(C#N)C2)c1)c1ccc(C(F)F)cc1F` [Example 49, 1-((3-((3-cyano-1-azetidinyl)sulfonyl)phenyl)carbonyl)-N-((1R)-1-(4-(difluoromethyl)-2-fluorophenyl)ethyl)-D-prolinamide] here?
Its AC1.4 is 0.05315 µM.
